Source: patent publication US3976771A, “Glycylglycine amide preparations and method of use antiarrhythmic” (priority 1972, dated 1976)
“Also recorded” adds a separate entry of the source.

Experiments:
mice = assay: Acute oral toxicity in mice; type: in vivo; details: deaths during 7 days
Protocol: For determination of acute toxicity groups of 10 mice were treated orally with varying doses of compound observing the incidence of death, during a 7 days period. LD50 and LD 0.1 were calculated by means of a logarithmic-probit graph paper.

[1] = test system: ventricular fibrillation upon exposure to chloroform vapor; assay: Protection against chloroform-induced ventricular fibrillation in mice; type: in vivo
Text: The method used in mice was essentially the same as described by Lawson (J. Pham. Exp. Therap. 160, 22 (1968). Male mice (NMRI, 17-25 g) were used. Unanesthetized, untreated mice show cardiac ventricular fibrillation upon exposure to chloroform vapor. The ventricular fibrillation is abolished if the animals are pretreated with appropriate doses of known antiarrhythmic agents before exposure to chloroform.
For determination of antiarrhythmic effect groups of 10 mice were pretreated by the oral route with varying sublethal doses of compound 10 to 300 min. respectively before being placed individually in a beaker containing chloroform. The mouse was removed from the beaker at the time of respiratory arrest and the thorax opened. Examination of ventricular fibrillation was made by means of ECG-recordings (lead II). The effect of the compound was expressed as the number of animals in per cent which were protected from fibrillation.

[2] = test system: aconitine-induced arrhythmias; assay: Protection against aconitine-induced arrhythmias in the guinea-pig; type: in vivo; details: for Dose of aconitine necessary for development of ECG-changes indicating Asystolie / Dose of aconitine necessary for development of ECG-changes indicating Fibrillation / Dose of aconitine necessary for development of ECG-changes indicating Tachycardia: 15 min before aconitine infusion, mean ± standard error
Protocol: The procedure used by Vargaftig et al. (Eur. J. Pharmacol. 6, 49, 1969) was slightly modified; Guinea-pigs of both sexes (250-400 g) were anaesthetized with uretane (1 g/kg bodyweight, i.p.). A plastic tube was introduced into the trachea and a thin plastic catheter into the jugular vein. Respiration was supported by means of a Harward Rodent Respirator 680. Aconitine was infused i.v. at a rate of 3 μg/min by means of a Palmer slow injection apparatus. The ECG (lead II) was continuously monitored. The amount of aconitine (μg/kg bodyweight) injected to induce ventricular tachycardia, fibrillation and asystolie was calculated. Test compounds were given i.p. with different time intervals between injection of drug and start of aconitine infusion.

[3] = test system: ventricular arrhythmias produced by coronary artery ligation; assay: Ventricular arrhythmias produced by coronary artery ligation in unanesthetized dogs; type: in vivo; details: two dogs, constant i.v. infusion 0.5 mg/kg/min
Protocol: The effects of intravenous infusion of GEA968 was also studies on two unanesthesized dogs with ventricular arrhythmias produced by coronary artery ligation, essentially following the procedure of A. S. Harris, Circulation, Vol. I, page 1318 (1950). The two dogs with well-developed arrhythmias received a constant infusion of 0.5 mg/kg/min. of GEA968.

[4] = test system: contractility of the heart; assay: Qualitative observation of side effects in the animal tests; type: in vivo; details: preliminary indication
Text: However, it was qualitatively observed that the side effects of the compounds of the present invention appeared to be less significant.

[5] = due to low levels of the drug in the blood; cited from earlier work
[6] = 100 mg/kg p.o., 10 min between pretreatment and chloroform vapor
[7] = 100 mg/kg p.o., 60 min between pretreatment and chloroform vapor

In the case of CCN(CC)CC(=O)NCC(=O)Nc1c(C)cccc1C [GEA 968, N,N-diethylglycylglycine-2,6-xylidide], the “LD 0.1 (the dose which kills 0.1 % of the animals)” value (mice) was 250 mg/kg bodyweight, the “Toxicity LD50 p.o.” value (mice) was 535 mg/kg bodyweight and the “Percentage animals protected from fibrillation” value (“Percentage animals protected” below) ([1]; 54 mg/kg p.o. (one tenth of LD50), 10 min) was 45 per cent. The “Percentage animals protected” value ([1]; 54 mg/kg p.o. (one tenth of LD50), 60 min) was 55 per cent, the “Percentage animals protected” value ([1]; 54 mg/kg p.o. (one tenth of LD50), 300 min) was 15 per cent and the “Percentage animals protected” value [1, 6] was 70 per cent. The “Percentage animals protected” value [1, 7] was 65 per cent, the “Percentage animals protected” value ([1]; 100 mg/kg p.o., 300 min between pretreatment and chloroform vapor) was 45 per cent and the “Percentage animals protected” value ([1]; 250 mg/kg p.o., 10 min) was 90 per cent. For the same compound, the “Percentage animals protected” value ([1]; 250 mg/kg p.o., 60 min) was 90 per cent, the “Percentage animals protected” value ([1]; 250 mg/kg p.o., 300 min) was 70 per cent and the “Antiarrhythmic effect in the chloroform test (in words)” value ([1]; mice, p.o.) was “good antiarrhythmic effects”. The “Duration of antiarrhythmic effectiveness (in words)” value ([1]; mouse, in vivo) was “especially significant”, the “Dose of aconitine necessary for development of ECG-changes indicating Asystolie” value (from here on “Dose … of ECG-changes indicating Asystolie”) ([2]; 25 mg/kg i.p.) was 210 ± 12 μg/kg bodyweight and the “Dose of aconitine necessary for development of ECG-changes indicating Fibrillation” value (“Dose … of ECG-changes indicating Fibrillation” for short) ([2]; 25 mg/kg i.p.) was 155 ± 10 μg/kg bodyweight. The “Dose of aconitine necessary for development of ECG-changes indicating Tachycardia” value (“Dose … of ECG-changes indicating Tachycardia” below) ([2]; 25 mg/kg i.p.) was 91 ± 6 μg/kg bodyweight, the “Dose … of ECG-changes indicating Asystolie” value ([2]; 50 mg/kg i.p.) was 378 ± 33 μg/kg bodyweight and the “Dose … of ECG-changes indicating Fibrillation” value ([2]; 50 mg/kg i.p.) was 284 ± 25 μg/kg bodyweight. For the same compound, the “Dose … of ECG-changes indicating Tachycardia” value ([2]; 50 mg/kg i.p.) was 161 ± 15 μg/kg bodyweight, the “Dose … of ECG-changes indicating Asystolie” value ([2]; 100 mg/kg i.p.) was 632 ± 132 μg/kg bodyweight and the “Dose … of ECG-changes indicating Fibrillation” value ([2]; 100 mg/kg i.p.) was 356 ± 32 μg/kg bodyweight. The “Dose … of ECG-changes indicating Tachycardia” value ([2]; 100 mg/kg i.p.) was 225 ± 35 μg/kg bodyweight, the “Antiarrhythmic effect in the aconitine test (in words)” value ([2]; guinea-pig, i.p.) was “markedly potent; also recorded: good antiarrhythmic effects” and the “Duration of suppression of arrhythmias” value [3] was “unusually long duration”. For the same compound, the “Effect on ventricular arrhythmias” value [3] was “suppression of the arrhythmias” and the “Effect on contractility of the heart (qualitative)” value [4] was “improving the contractility of the heart”.

For CCN(CC)CC(=O)Nc1c(C)cccc1C [Lidocaine, 2-diethylamino-2', 6'-acetoxylidide, reference compound], the “LD 0.1 (the dose which kills 0.1 % of the animals)” value (mice) was 150 mg/kg bodyweight, the “Dose … of ECG-changes indicating Asystolie” value ([2]; 25 mg/kg i.p.) was 237 ± 35 μg/kg bodyweight and the “Dose … of ECG-changes indicating Fibrillation” value ([2]; 25 mg/kg i.p.) was 176 ± 12 μg/kg bodyweight. The “Dose … of ECG-changes indicating Tachycardia” value ([2]; 25 mg/kg i.p.) was 66 ± 7 μg/kg bodyweight and the Oral antiarrhythmic effectiveness [5] was “not orally effective”.

In the case of CCN(CC)[C@@H](C)C(=O)N[C@@H](C)C(=O)NC(C)(C)c1ccccc1 [GEA 982, N^3,N^3 -diethyl-N^1 -(α,α-dimethylbenzyl)alanylalanineamide], the “LD 0.1 (the dose which kills 0.1 % of the animals)” value (mice) was 210 mg/kg bodyweight, the “Toxicity LD50 p.o.” value (mice) was 660 mg/kg bodyweight and the “Percentage animals protected” value ([1]; 66 mg/kg p.o. (one tenth of LD50), 10 min) was 0 per cent. For the same compound, the “Percentage animals protected” value ([1]; 66 mg/kg p.o. (one tenth of LD50), 60 min) was 0 per cent, the “Percentage animals protected” value ([1]; 210 mg/kg p.o. (LD 0.1), 10 min) was 40 per cent and the “Percentage animals protected” value ([1]; 210 mg/kg p.o. (LD 0.1), 60 min) was 15 per cent.

For CCN(CC)CC(=O)NCC(=O)Nc1ccccc1 [GEA 984, N,N-diethylglycylglycine anilide], the “Toxicity LD50 p.o.” value (mice) was over 1000 mg/kg bodyweight, the “Percentage animals protected” value ([1]; 250 mg/kg p.o., 10 min) was 0 per cent and the “Percentage animals protected” value ([1]; 250 mg/kg p.o., 60 min) was 0 per cent. The “Percentage animals protected” value ([1]; 500 mg/kg p.o., 10 min) was 70 per cent, the “Percentage animals protected” value ([1]; 500 mg/kg p.o., 60 min) was 10 per cent and the “Percentage animals protected” value ([1]; 1000 mg/kg p.o., 10 min) was 75 per cent. The “Percentage animals protected” value ([1]; 1000 mg/kg p.o., 60 min) was 0 per cent, the “Dose … of ECG-changes indicating Asystolie” value ([2]; 100 mg/kg i.p.) was 284 ± 29 μg/kg bodyweight and the “Dose … of ECG-changes indicating Fibrillation” value ([2]; 100 mg/kg i.p.) was 211 ± 18 μg/kg bodyweight. The “Dose … of ECG-changes indicating Tachycardia” value ([2]; 100 mg/kg i.p.) was 95 ± 9 μg/kg bodyweight.

For CCN(CC)CC(=O)N[C@@H](C)C(=O)NC(C)(C)c1ccccc1 [GEA 981, N^3,N^3 -diethyl-N^1 -(α,α-dimethylbenzyl)glycylalanineamide], the “LD 0.1 (the dose which kills 0.1 % of the animals)” value (mice) was 610 mg/kg bodyweight, the “Toxicity LD50 p.o.” value (mice) was 880 mg/kg bodyweight and the “Percentage animals protected” value ([1]; 88 mg/kg p.o. (one tenth of LD50), 10 min) was 35 per cent. For the same compound, the “Percentage animals protected” value ([1]; 88 mg/kg p.o. (one tenth of LD50), 60 min) was 10 per cent, the “Percentage animals protected” value ([1]; 610 mg/kg p.o. (LD 0.1), 10 min) was 90 per cent and the “Percentage animals protected” value ([1]; 610 mg/kg p.o. (LD 0.1), 60 min) was 45 per cent.

In the case of CCN(CC)CC(=O)NCC(=O)NC(C)(C)c1ccccc1 [GEA 980, N^3,N^3 -diethyl-N^1 -(α,α-dimethylbenzyl) glycylglycine amide], the “Toxicity LD50 p.o.” value (mice) was over 500 mg/kg bodyweight, the “Percentage animals protected” value [1, 6] was 11 per cent and the “Percentage animals protected” value [1, 7] was 10 per cent. The “Percentage animals protected” value ([1]; 300 mg/kg p.o., 10 min) was 25 per cent, the “Percentage animals protected” value ([1]; 300 mg/kg p.o., 60 min) was 10 per cent and the “Percentage animals protected” value ([1]; 500 mg/kg p.o., 10 min) was 65 per cent. The “Percentage animals protected” value ([1]; 500 mg/kg p.o., 60 min) was 0 per cent.
